Measured values reported in patent US20080280945A1, “Crystalline forms of an HIV integrase inhibitor” (priority 2007, published 2008).
Converted amounts (≈) assume the structure as drawn.

How the values were obtained:
[1] = solubility in water at 25° C. (ReactArray ST system, HPLC); format: physicochemical; conditions: for Solubility: equilibrated 24 h, average of last four hours, mean ± SE of 4 samples (amorphous: 1 sample); for Comment (form of excess solid): excess solid after solubility experiment
Experimental: The solubilities of crystalline ethanolate, crystalline hydrate and crystalline anhydrate were determined in water at 25° C. using a ReactArray ST™ system (Anachem, UK). Approximately 50 mg of material was transferred to a sample tube and 1.5 mL of water was added to it. The tubes were mounted on a temperature control block and the slurry was stirred at 400 rpm using a magnetic stir bar. The solution was equilibrated for 24 hours following which the concentration was monitored every hour for 6 hours.
HPLC conditions: column=C18 Bridge column (Waters Corporation), 4.6 mm×50 mm and 2.5 μm particle size; temperature=25° C., UV detection at λ=220 nm; flow rate=1 mL/minute; injection volume=5 μL; mobile phase=initial conditions at 20% acetonitrile and 80% 0.1% phosphate buffer with a gradient from 20% acetonitrile to 95% acetonitrile in 3 minutes, hold at 95% acetonitrile for 3 minutes, then from 95% to 20% acetonitrile in 0.1 minute (run time: 7 minutes), followed by 1 minute conditioning.

[2] = thermal stability studies, 2 weeks storage, HPLC and XRPD; format: physicochemical; conditions: for Loss at 40° C., 75% RH / Loss at 60° C., ambient RH: 2 weeks storage, HPLC, NLQ = no loss greater than the limit of quantitation
Experimental: One set of samples of the amorphous, crystalline ethanolate, crystalline hydrate, and crystalline anhydrate forms of Isomer M were stored in a GMP stability chamber at 40° C. and 75% relative humidity (RH) and another set of analogous samples was stored at 60° C. and ambient RH in a Vacuum Oven, NAPCO (National Appliance Company) Model 5831. The samples were analyzed by XRPD and by HPLC before and after 2 weeks storage. HPLC conditions: column=Symmetry Shield RP18 15 cm×4.6 mm (Waters Corporation) with 3.5 μm particle size; temperature=25° C., UV detection at λ=220 nm; flow rate=1 mL/minute; injection volume=10 μL; mobile phase=initial conditions at 20% acetonitrile and 80% 0.1% phosphate buffer with a gradient from 20% acetonitrile to 35% acetonitrile in 8 minutes, hold at 35% acetonitrile for 5 minutes, from 35% to 60% acetonitrile in 13 minutes, from 60% to 90% acetonitrile in 10 minutes (run time: 36 minutes, equilibration time: 10 minutes).

[3] = tested on: acute HIV infection of T-lymphoid cells; test: inhibition of acute HIV infection of T-lymphoid cells (Vacca et al.); format: cell-based; conditions: n=6
[4] = after 2 weeks at 60° C., ambient RH

**Q.** What does the source list for `CN1C[C@H](O)C(C)(C)Cn2c(c3c(c(O)c2=O)C(=O)N(Cc2ccc(F)c(Cl)c2)CC3)C1=O` [Amorphous, M-(4R)-11-(3-chloro-4-fluorobenzyl)-4,9-dihydroxy-2,5,5-trimethyl-3,4,5,6,12,13-hexahydro-2H[1,4]diazocino[2,1-a]-2,6-naphthyridine-1,8,10(11H)-trione]?
**A.** Solubility [1]: 0.83 mg/mL (≈ 1740 µM); Comment (form of excess solid) [1]: Excess solid is amorphous; Loss at 40° C., 75% RH [2]: 8.9 A %

**Q.** Which results are given for `CN1C[C@H](O)C(C)(C)Cn2c(c3c(c(O)c2=O)C(=O)N(Cc2ccc(F)c(Cl)c2)CC3)C1=O` [Crystalline anhydrate, M-(4R)-11-(3-chloro-4-fluorobenzyl)-4,9-dihydroxy-2,5,5-trimethyl-3,4,5,6,12,13-hexahydro-2H[1,4]diazocino[2,1-a]-2,6-naphthyridine-1,8,10(11H)-trione anhydrate]?
**A.** Solubility [1]: 0.124 (±0.010) mg/mL; Comment (form of excess solid) [1]: Excess solid is anhydrate; Loss at 40° C., 75% RH [2]: NLQ; Loss at 60° C., ambient RH [2]: NLQ; XRPD (form change) ([2]; after 2 weeks at 40° C., 75% RH): no detectable change; XRPD (form change) [2, 4]: no detectable change

**Q.** With `CN1C[C@H](O)C(C)(C)Cn2c(c3c(c(O)c2=O)C(=O)N(Cc2ccc(F)c(Cl)c2)CC3)C1=O` [Crystalline ethanolate, M-(4R)-11-(3-chloro-4-fluorobenzyl)-4,9-dihydroxy-2,5,5-trimethyl-3,4,5,6,12,13-hexahydro-2H[1,4]diazocino[2,1-a]-2,6-naphthyridine-1,8,10(11H)-trione ethanolate] as the molecule, how does the Solubility [1] read?
**A.** 0.071 (±0.002) mg/mL

**Q.** What about the “Comment (form of excess solid)” value [1] of the same molecule?
**A.** Excess solid converts to hydrate

**Q.** And the “Loss at 40° C., 75% RH” value [2]?
**A.** 0.3 A %

**Q.** And the “Loss at 60° C., ambient RH” value [2]?
**A.** 11.5 A %

**Q.** And the “XRPD (form change)” value [2, 4]?
**A.** no detectable change

**Q.** What does the source list for `CN1C[C@H](O)C(C)(C)Cn2c(c3c(c(O)c2=O)C(=O)N(Cc2ccc(F)c(Cl)c2)CC3)C1=O` [Isomer M, M-(4R)-11-(3-chloro-4-fluorobenzyl)-4,9-dihydroxy-2,5,5-trimethyl-3,4,5,6,12,13-hexahydro-2H[1,4]diazocino[2,1-a]-2,6-naphthyridine-1,8,10(11H)-trione]?
**A.** IC95 ([3]; in the presence of 10% FBS): 15.6±0 1M; IC95 ([3]; in the presence of 50% human serum): 51.7±16
